Data taken from US12187662B2, “FOXM1 inhibitor compositions and methods of using the same” (The Board of Trustees of the University of Illinois, priority 2018, dated 2025).
Read-outs that look alike come from different tables or passages of the source.

Assays:
MCF7 cells = assay: Cell proliferation assay (WST-1), MCF7; type: cell-based, human
Method: (§1) All cells were tested for mycoplasma using Real-Time PCR Mycoplasma Detection Kit (Akron Biotech, Boca Raton, FL).
(§2) All assays were performed in triplicate.

[1] = Pharmacokinetic studies in mice after single s.c. or oral dose
DT22 cells = assay: Cell proliferation assay (WST-1), DT22; type: cell-based, human; settings: Homo sapiens, DT-22, inhibition of cell proliferation
Method: as §1, §2

[2] = inhibition of cell proliferation, read-out: IC50 MCF7
[3] = Homo sapiens, MCF7, inhibition of cell proliferation, read-out: IC50 MCF7

Compound | IC50 (MCF7 cells; [3]) | other results
1-(6-(4-((Z)-((5S,7S)-adamantan-2-ylidene)(4-chlorophenyl)methyl)phenoxy)hexyl)-1-methylazepan-1-ium iodide [NB-85] | – | IC50 (MCF7 cells; [2]): 9.8 µM
1-(6-(4-((Z)-((5S,7S)-adamantan-2-ylidene)(4-chlorophenyl)methyl)phenoxy)hexyl)-1H-imidazole [NB-60] | – | IC50 (MCF7 cells; [2]): 16 µM
1-(6-(4-((Z)-((5S,7S)-adamantan-2-ylidene)(4-chlorophenyl)methyl)phenoxy)hexyl)-4-methylpiperazine [NB-64] | – | IC50 (MCF7 cells; [2]): 3 µM
C[n+]1ccn(CCCCCCOc2ccc(C(=C3C4CC5CC(C4)CC3C5)c3ccc(Cl)cc3)cc2)c1 [NB-62, 1-(6-(4-((Z)-((5S,7S)-adamantan-2-ylidene)(4-chlorophenyl)methyl)phenoxy)hexyl)-3-methyl-1H-imidazol-3-ium iodide] | 5.5 µM | half-life ([1]; female, CD-1, mouse, plasma, sc, 40 mg/kg): 36.8 h; AUC(0-t) ([1]; female, CD-1, mouse, plasma, sc, 40 mg/kg, PK s.c. AUC0-48, mice, 40 mg/kg s.c.): 150 µM·h; PK p.o. AUC0-48 ([1]; mice, 40 mg/kg p.o.): too low to measure
c1cc(C(=C2C3CC4CC(C3)CC2C4)c2ccc(OCCCCCCN3CCCCCC3)cc2)ccc1OCCCCCCN1CCCCCC1 [NB-72, 1,1′-((((((5r,7r)-Adamantan-2-ylidene)methylene)bis(4,1-phenylene))bis(oxy))bis(hexane-6,1-diyl))bis(azepane)] | – | IC50 (DT22 cells): 0.7 µM; IC50 (MCF7 cells; Homo sapiens, MCF7, read-out: IC50 MCF7): 0.7 µM
Clc1ccc(C(=C2C3CC4CC(C3)CC2C4)c2ccc(OCCCCCCN3CCCCCC3)cc2)cc1 [NB-119, 1-(6-(4-((Z)-((5S,7S)-Adamantan-2-ylidene)(4-chlorophenyl)methyl)phenoxy)hexyl)azepane] | 4.2 µM | –
c1cc(C(=C2C3CC4CC(C3)CC2C4)c2ccc(OCCCCN3CCCCC3)cc2)ccc1OCCCCN1CCCCC1 [NB-120, 1,1′-((((((5r,7r)-adamantan-2-ylidene)methylene)bis(4,1-phenylene))bis(oxy))bis(butane-4,1-diyl))dipiperidine] | 0.9 µM | –
c1cc(C(=C2C3CC4CC(C3)CC2C4)c2ccc(OCCCCN3CCCCCC3)cc2)ccc1OCCCCN1CCCCCC1 [NB-121, 1,1′-((((((5r,7r)-adamantan-2-ylidene)methylene)bis(4,1-phenylene))bis(oxy))bis(butane-4,1-diyl))bis(azepane)] | 1.6 µM | –
c1cc(C(=C2C3CC4CC(C3)CC2C4)c2ccc(OCCCCCN3CCCCC3)cc2)ccc1OCCCCCN1CCCCC1 [NB-122, 1,1′-((((((5r,7r)-adamantan-2-ylidene)methylene)bis(4,1-phenylene))bis(oxy))bis(pentane-5,1-diyl))dipiperidine] | 1.2 µM | –
OCCN(CCO)CCCCCCOc1ccc(C(=C2C3CC4CC(C3)CC2C4)c2ccc(OCCCCCCN(CCO)CCO)cc2)cc1 [NB-131, 2,2′,2″,2″′-(((((((5r,7r)-adamantan-2-ylidene)methylene)bis(4,1-phenylene))bis(oxy))bis(hexane-6,1-diyl))bis(azanetriyl))tetrakis(ethan-1-ol)] | 0.9 µM | PK p.o. AUC0-48 ([1]; mice, 40 mg/kg p.o.): too low to measure
C[N+](CCO)(CCO)CCCCCCOc1ccc(C(=C2C3CC4CC(C3)CC2C4)c2ccc(OCCCCCC[N+](C)(CCO)CCO)cc2)cc1 [NB-135, 6,6′-(((((5r,7r)-adamantan-2-ylidene)methylene)bis(4,1-phenylene))bis(oxy))bis(N,N-bis(2-hydroxyethyl)-N-methylhexan-1-aminium) diiodide] | 2.1 µM | –
C[N+]1(CCCCCCOc2ccc(C(=C3C4CC5CC(C4)CC3C5)c3ccc(OCCCCCC[N+]4(C)CCC4)cc3)cc2)CCC1 [NB-137, 1,1′-((((((5r,7r)-adamantan-2-ylidene)methylene)bis(4,1-phenylene))bis(oxy))bis(hexane-6,1-diyl))bis(1-methylazetidin-1-ium) diiodide] | 2.3 µM | –
OCC[N+]1(CCCCCCOc2ccc(C(=C3C4CC5CC(C4)CC3C5)c3ccc(OCCCCCC[N+]4(CCO)CCCCCC4)cc3)cc2)CCCCCC1 [NB-142, 1,1′-((((((5r,7r)-adamantan-2-ylidene)methylene)bis(4,1-phenylene))bis(oxy))bis(hexane-6,1-diyl))bis(1-(2-hydroxyethyl)azepan-1-ium) diiodide] | 2.4 µM | –
CC1(O)C[N+](C)(CCCCCCOc2ccc(C(=C3C4CC5CC(C4)CC3C5)c3ccc(OCCCCCC[N+]4(C)CC(C)(O)C4)cc3)cc2)C1 (centres unmarked) [NB-144, 1,1′-((((((5r,7r)-adamantan-2-ylidene)methylene)bis(4,1-phenylene))bis(oxy))bis(hexane-6,1-diyl))bis(3-hydroxy-1,3-dimethylazetidin-1-ium) diiodide] | 1.8 µM | –
(S)-1-(6-(4-((Z)-((5S,7S)-adamantan-2-ylidene)(4-chlorophenyl)methyl)phenoxy)hexyl)-1-methyl-1λ^4-piperidin-2-ylium iodide [NB-84] | – | IC50 (MCF7 cells; [2]): 6 µM

The remaining compounds from weak to strong by IC50 (MCF7 cells; [3]), led by results:

IC50 (MCF7 cells; [3]) | Compound | other results
7.5 µM | c1cn(CCCCCCOc2ccc(C(=C3C4CC5CC(C4)CC3C5)c3ccc(OCCCCCCn4ccnc4)cc3)cc2)cn1 [NB-61, 1,1′-((((((5r,7r)-adamantan-2-ylidene)methylene)bis(4,1-phenylene))bis(oxy))bis(hexane-6,1-diyl))bis(1H-imidazole)] | –
6 µM | CN1CC[N+](C)(CCCCCCOc2ccc(C(=C3C4CC5CC(C4)CC3C5)c3ccc(OCCCCCC[N+]4(C)CCN(C)CC4)cc3)cc2)CC1 [NB-69, 1,1′-((((((5r,7r)-adamantan-2-ylidene)methylene)bis(4,1-phenylene))bis(oxy))bis(hexane-6,1-diyl))bis(1,4-dimethylpiperazin-1-ium) dimethanesulfonate] | –
4.4 µM | Clc1ccc(C(=C2C3CC4CC(C3)CC2C4)c2ccc(OCCCCCCN3CCCCC3)cc2)cc1 [NB-118, 1-(6-(4-((Z)-((5S,7S)-Adamantan-2-ylidene)(4-chlorophenyl)methyl)phenoxy)hexyl)piperidine] | –
3.6 µM | OCC[N+]1(CCCCCCOc2ccc(C(=C3C4CC5CC(C4)CC3C5)c3ccc(OCCCCCC[N+]4(CCO)CCCCC4)cc3)cc2)CCCCC1 [NB-141, 1,1′-((((((5r,7r)-adamantan-2-ylidene)methylene)bis(4,1-phenylene))bis(oxy))bis(hexane-6,1-diyl))bis(1-(2-hydroxyethyl)piperidin-1-ium) diiodide] | –
1.6 µM | OC1CCN(CCCCCCOc2ccc(C(=C3C4CC5CC(C4)CC3C5)c3ccc(OCCCCCCN4CCC(O)CC4)cc3)cc2)CC1 [NB-132, 1,1′-((((((5r,7r)-adamantan-2-ylidene)methylene)bis(4,1-phenylene))bis(oxy))bis(hexane-6,1-diyl))bis(piperidin-4-ol)] | –
1.6 µM | OCC[N+]1(CCCCCCOc2ccc(C(=C3C4CC5CC(C4)CC3C5)c3ccc(OCCCCCC[N+]4(CCO)CCCC4)cc3)cc2)CCCC1 [NB-140, 1,1′-((((((5r,7r)-adamantan-2-ylidene)methylene)bis(4,1-phenylene))bis(oxy))bis(hexane-6,1-diyl))bis(1-(2-hydroxyethyl)pyrrolidin-1-ium) diiodide] | –
1.2 µM | CCN(CCO)CCCCCCOc1ccc(C(=C2C3CC4CC(C3)CC2C4)c2ccc(OCCCCCCN(CC)CCO)cc2)cc1 [NB-130, 2,2′-(((((((5r,7r)-adamantan-2-ylidene)methylene)bis(4,1-phenylene))bis(oxy))bis(hexane-6,1-diyl))bis(ethylazanediyl))bis(ethan-1-ol)] | PK p.o. AUC0-48 ([1]; mice, 40 mg/kg p.o.): too low to measure
1.1 µM | CC1(O)CN(CCCCCCOc2ccc(C(=C3C4CC5CC(C4)CC3C5)c3ccc(OCCCCCCN4CC(C)(O)C4)cc3)cc2)C1 [NB-143, 1,1′-((((((5r,7r)-adamantan-2-ylidene)methylene)bis(4,1-phenylene))bis(oxy))bis(hexane-6,1-diyl))bis(3-methylazetidin-3-ol)] | –
1 µM | c1cc(C(=C2C3CC4CC(C3)CC2C4)c2ccc(OCCCCCN3CCCCCC3)cc2)ccc1OCCCCCN1CCCCCC1 [NB-123, 1,1′-((((((5r,7r)-adamantan-2-ylidene)methylene)bis(4,1-phenylene))bis(oxy))bis(pentane-5,1-diyl))bis(azepane)] | –
1 µM | C[N+]1(CCCCCCOc2ccc(C(=C3C4CC5CC(C4)CC3C5)c3ccc(OCCCCCC[N+]4(C)CCC(O)CC4)cc3)cc2)CCC(O)CC1 (centres unmarked) [NB-136, 1,1′-((((((5r,7r)-adamantan-2-ylidene)methylene)bis(4,1-phenylene))bis(oxy))bis(hexane-6,1-diyl))bis(4-hydroxy-1-methylpiperidin-1-ium) diiodide] | –
0.9 µM | C[N+]1(CCCCCCOc2ccc(C(=C3C4CC5CC(C4)CC3C5)c3ccc(OCCCCCC[N+]4(C)CCC[C@H]4CO)cc3)cc2)CCC[C@H]1CO (stereo partly drawn) [NB-139, (1R,1′R,2S,2'S)-1,1′-((((((5r,7r)-adamantan-2-ylidene)methylene)bis(4,1-phenylene))bis(oxy))bis(hexane-6,1-diyl))bis(2-(hydroxymethyl)-1-methylpyrrolidin-1-ium) diiodide] | –
0.9 µM | OC1CN(CCCCCCOc2ccc(C(=C3C4CC5CC(C4)CC3C5)c3ccc(OCCCCCCN4CC(O)C4)cc3)cc2)C1 [NB-145, 1,1′-((((((5r,7r)-adamantan-2-ylidene)methylene)bis(4,1-phenylene))bis(oxy))bis(hexane-6,1-diyl))bis(azetidin-3-ol)] | PK p.o. AUC0-48 ([1]; mice, 40 mg/kg p.o.): too low to measure
0.8 µM | c1cc(C(=C2C3CC4CC(C3)CC2C4)c2ccc(OCCCCCCN3CCC3)cc2)ccc1OCCCCCCN1CCC1 [NB-133, 1,1′-((((((5r,7r)-adamantan-2-ylidene)methylene)bis(4,1-phenylene))bis(oxy))bis(hexane-6,1-diyl))bis(azetidine)] | –
0.7 µM | OC[C@@H]1CCCN1CCCCCCOc1ccc(C(=C2C3CC4CC(C3)CC2C4)c2ccc(OCCCCCCN3CCC[C@H]3CO)cc2)cc1 [NB-138, ((2S,2'S)-((((((5r,7r)-adamantan-2-ylidene)methylene)bis(4,1-phenylene))bis(oxy))bis(hexane-6,1-diyl))bis(pyrrolidine-1,2-diyl))dimethanol] | PK p.o. AUC0-48 ([1]; mice, 40 mg/kg p.o.): 1.84 µM·h; PK p.o. t1/2 ([1]; mice, 40 mg/kg p.o.): 25.0 h
